From patent US12162888B2, “Carboxamides as ubiquitin-specific protease inhibitors” (Valo Early Discovery, Inc., priority 2018, dated 2024) come the findings set out here.

The subject of the experiment is human eosinophil EOL-1 (DSMZ no. ACC 386) cells. Nature of the experiment: In Vivo Xenograft Studies, Example A-2. To be noted: EOL-1 cells subcutaneous in flank of mice; first test compound 50-120 mg/kg orally or subcutaneously, second test compound 40 or 60 mg/kg orally twice per day; versus vehicle (FIG. 2). As to the method:
Example A-2: In Vivo Xenograft Studies
Mice were injected subcutaneously in the flank with human eosinophil EOL-1 (DSMZ no. ACC 386) cells (NCI). Injections with cells (circles, FIG. 2A) and with vehicle alone (triangles, FIG. 2B) were monitored, and when tumors reached a critical size (for example, about 1000 mm^3), mice were randomized into treatment groups, including vehicle control and reference standard groups. The groups, as shown in FIG. 2B are as follows: Group 1, vehicle administered orally every other day; Group 2, first test compound ((S)-amino-N-(5-fluoro-7-(piperazin-1-yl)chroman-3-yl)-6-methylthieno[2,3-b]pyridine-2-carboxamide) at 120 mg/kg, administered orally every other day; Group 3, first test compound at 80 mg/kg, administered orally every other day; Group 4, first test compound at 80 mg/kg, administered subcutaneously twice per day, every other day thereafter; Group 5, first test compound at 60 mg/kg, administered subcutaneously twice per day for four consecutive days, with no administration for three days. […] The mice were weighed and tumors measured using vernier calipers on indicated days. Tumor volume was calculated according to the formula (length×width^2)/2.

With `CO[C@H]1CN(c2ccc3c(n2)CC[C@H](NC(=O)c2sc4nc(C)cnc4c2N)C3)C[C@@H]1N` [second test compound, 7-amino-N-[(6S)-2-[(3S,4S)-3-amino-4-methoxypyrrolidin-1-yl]-5,6,7,8-tetrahydroquinolin-6-yl]-3-methylthieno[2,3-b]pyrazine-6-carboxamide], the “tumor growth (tumor volume, (length×width^2)/2)” value is recorded as “slowing of tumor growth over time”.
